Data reported in patent US20130160151A1, “TRANSGENIC ANIMAL AS A MODEL FOR IDENTIFYING ADULT STEM CELLS, AND USES THEREOF” (Universite Pierre et Marie Curie (PARIS 6), priority 2010, published 2013).
“Also recorded” adds a separate entry of the source.

Legend:
skin stem cells = assay: Screening feasibility: number of blue clones per well of skin stem cells treated with factors; format: cell-based, mouse; conditions: skin stem cells from 7 week-old Pw1nlacZ mice, 2 cells/μl, factors added after 3 days in culture, a week treatment, duplicates
Procedure: FIG. 9 is a graph showing the number of clones of skin stem cells after a week treatment with various factors (EGF, BMP2, BMP4, Activin A).
Fluorescence-activated cell sorting has been performed, dorsal skin from 7 week-old Pw1^nlacZ mice (n=3-5) were collected and cell preparation was obtained. For detection of nuclear β-galactosidase activity, a fluorescein di-β-D-galactopyranoside (FDG) staining kit (Invitrogen) was used according to manufacturer's instructions. Cells were then plated on 24 or 96 wells at density of 2 cells/μl. The cells were treated with 4 different factors after 3 days in culture: • EGF, Human recombinant protein from R&D system • BMP2, Human recombinant protein from Humanzyme • BMP4, Human recombinant protein from Humanzyme • Activin A, Human recombinant protein from Humanzyme
The analysis of the effect of different factors has been done using a simple readout: counting the number of blue clones per well. […] This experiment has been done in duplicates.

β-gal positive cells = assay: In vitro culture of FAC-sorted blue (β-gal positive) cells with or without EGF; format: cell-based; conditions: medium containing EGF vs without EGF; FAC-sorted blue cells of the transgenic mouse
Procedure: FIGS. 6A and 6B show in vitro culture of β-gal positive cells after FAC sorting in absence (6A) or in presence (6B) of EGF.
The inventors isolated cells from a transgenic mouse as obtained in Example 1, and isolated them by FAC sorting. Only the blue cells were cultured in vitro.
Then for proof of concept, the cells were contacted with human recombinant EGF or without EGF. The growth factor was tested for its ability to keep the cells blue over time.

**Q.** “EGF: Human recombinant protein from R&D system” was tested. Which “number of blue clones per well (cell growth)” value (skin stem cells) did it give?
**A.** allows the cells to grow

**Q.** And the “number of blue cells per clone” value (β-gal positive cells)?
**A.** greater; also recorded: higher

**Q.** What about the “number of blue clones” value (β-gal positive cells) of the same substance?
**A.** greater; also recorded: higher
